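Growth conditions: 96-well plates. Treatment: test compound, 48 hours, 5 concentrations. Analysis: linear interpolation between bracketing concentrations; unreached endpoints set to highest concentration. Here, GI50 denotes the concentration required for 50% inhibition of growth.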 Activity calls are given as the source filed them. Rule as the data show it: active = GI50 up to about 1.1 µM and inactive = higher.
Experiments:
Test in all cases: growth of human tumour cells (NCI), 48 h
LOX IMVI = test system: LOX IMVI
OVCAR-3 = test system: OVCAR-3
SK-MEL-2 = test system: SK-MEL-2
CCRF-CEM = test system: CCRF-CEM
MOLT-4 = test system: MOLT-4
HCC 2998 = test system: HCC 2998
NCI-H522 = test system: NCI-H522
OVCAR-8 = test system: OVCAR-8
HCT-116 = test system: HCT-116
DLD-1 = test system: DLD-1
RXF 631 = test system: RXF 631
SK-OV-3 = test system: SK-OV-3
A549 = test system: A549
KM-20L2 = test system: KM-20L2
SR = test system: SR
ACHN = test system: ACHN
K562 = test system: K562
DMS-114 = test system: DMS-114
M14 = test system: M14
A498 = test system: A498
M19-MEL = test system: M19-MEL
U-251 = test system: U-251
LXFL 529 = test system: LXFL 529
NCI-H460 = test system: NCI-H460
IGROV-1 = test system: IGROV-1
SF-539 = test system: SF-539
HOP-62 = test system: HOP-62
HOP-92 = test system: HOP-92
SK-MEL-28 = test system: SK-MEL-28
SNB-78 = test system: SNB-78
SF-268 = test system: SF-268
KM12 = test system: KM12
UACC-62 = test system: UACC-62
HL-60 = test system: HL-60
EKVX = test system: EKVX
SW-620 = test system: SW-620
OVCAR-5 = test system: OVCAR-5
UO-31 = test system: UO-31
CAKI-1 = test system: CAKI-1
NCI-H226 = test system: NCI-H226
UACC-257 = test system: UACC-257
SNB-19 = test system: SNB-19
COLO 205 = test system: COLO 205
OVCAR-4 = test system: OVCAR-4
SNB-75 = test system: SNB-75
DMS-273 = test system: DMS-273
HCT-15 = test system: HCT-15
SK-MEL-5 = test system: SK-MEL-5
HOP-18 = test system: HOP-18
RPMI-8226 = test system: RPMI-8226
XF498 = test system: XF498
HT-29 = test system: HT-29
NCI-H23 = test system: NCI-H23
SF-295 = test system: SF-295
SN12C = test system: SN12C
Malme-3M = test system: Malme-3M
TK-10 = test system: TK-10
786-0 = test system: 786-0
RXF 393 = test system: RXF 393

Cc1csc2nc(-c3ccncc3)cn12
GI50 (LOX IMVI): > 43.4 µM (inactive)
GI50 (OVCAR-3): > 100 µM (inactive)
GI50 (SK-MEL-2): > 100 µM (inactive)
GI50 (CCRF-CEM): > 42.1 µM (inactive)
GI50 (MOLT-4): > 100 µM (inactive)
GI50 (HCC 2998): > 100 µM (inactive)
GI50 (NCI-H522): > 82.2 µM (inactive)
GI50 (OVCAR-8): > 100 µM (inactive)
GI50 (HCT-116): > 42.2 µM (inactive)
GI50 (DLD-1): > 63.1 µM (inactive)
GI50 (RXF 631): > 88.3 µM (inactive)
GI50 (SK-OV-3): > 100 µM (inactive)
GI50 (A549): > 100 µM (inactive)
GI50 (KM-20L2): > 65 µM (inactive)
GI50 (SR): 24.3 µM (inactive)
GI50 (ACHN): > 100 µM (inactive)
GI50 (K562): > 44 µM (inactive)
GI50 (DMS-114): > 42.1 µM (inactive)
GI50 (M14): > 68.2 µM (inactive)
GI50 (A498): > 100 µM (inactive)
GI50 (M19-MEL): > 59.6 µM (inactive)
GI50 (U-251): > 46.9 µM (inactive)
GI50 (LXFL 529): > 51.3 µM (inactive)
GI50 (NCI-H460): > 43.5 µM (inactive)
GI50 (IGROV-1): > 100 µM (inactive)
GI50 (SF-539): > 44 µM (inactive)
GI50 (HOP-62): > 100 µM (inactive)
GI50 (HOP-92): > 100 µM (inactive)
GI50 (SK-MEL-28): > 100 µM (inactive)
GI50 (SNB-78): > 100 µM (inactive)
GI50 (SF-268): > 69.7 µM (inactive)
GI50 (KM12): > 100 µM (inactive)
GI50 (UACC-62): > 100 µM (inactive)
GI50 (HL-60): > 36.3 µM (inactive)
GI50 (EKVX): > 59.7 µM (inactive)
GI50 (SW-620): > 21.1 µM (inactive)
GI50 (OVCAR-5): > 100 µM (inactive)
GI50 (UO-31): > 100 µM (inactive)
GI50 (CAKI-1): > 100 µM (inactive)
GI50 (NCI-H226): > 100 µM (inactive)
GI50 (UACC-257): > 100 µM (inactive)
GI50 (SNB-19): > 100 µM (inactive)
GI50 (COLO 205): > 45.5 µM (inactive)
GI50 (OVCAR-4): > 49.4 µM (inactive)
GI50 (SNB-75): > 100 µM (inactive)
GI50 (DMS-273): 19.7 µM (inactive)
GI50 (HCT-15): > 40.9 µM
GI50 (SK-MEL-5): > 100 µM (inactive)
GI50 (HOP-18): > 57.9 µM (inactive)
GI50 (RPMI-8226): > 45.1 µM (inactive)
GI50 (XF498): > 100 µM (inactive)
GI50 (HT-29): > 100 µM (inactive)
GI50 (NCI-H23): > 100 µM (inactive)
GI50 (SF-295): > 100 µM (inactive)
GI50 (SN12C): > 100 µM (inactive)
GI50 (Malme-3M): > 100 µM (inactive)
GI50 (TK-10): > 100 µM (inactive)
GI50 (786-0): 15.8 µM (inactive)

Cn1c(=O)nc2n(-c3ccc(F)c(F)c3)c3ccccc3nc-2c1=O
GI50 (OVCAR-3): 3.13 µM (inactive)
GI50 (SK-MEL-2): 17 µM (inactive)
GI50 (CCRF-CEM): 14.8 µM (inactive)
GI50 (HCC 2998): 4.89 µM (inactive)
GI50 (NCI-H522): 10.4 µM (inactive)
GI50 (OVCAR-8): 13.2 µM (inactive)
GI50 (HCT-116): 13.2 µM (inactive)
GI50 (DLD-1): 16 µM (inactive)
GI50 (RXF 631): 16.4 µM (inactive)
GI50 (SK-OV-3): > 100 µM (inactive)
GI50 (A549): 15.9 µM (inactive)
GI50 (KM-20L2): 4.86 µM (inactive)
GI50 (ACHN): 8.79 µM (inactive)
GI50 (K562): 15.5 µM (inactive)
GI50 (DMS-114): 4.33 µM (inactive)
GI50 (M14): 13.8 µM (inactive)
GI50 (A498): 42.9 µM (inactive)
GI50 (M19-MEL): 1.76 µM (inactive)
GI50 (U-251): 14.7 µM (inactive)
GI50 (LXFL 529): 21.3 µM (inactive)
GI50 (NCI-H460): 7.11 µM (inactive)
GI50 (IGROV-1): 15.2 µM (inactive)
GI50 (SF-539): 27.1 µM (inactive)
GI50 (HOP-62): 44.2 µM (inactive)
GI50 (SNB-78): 19.3 µM (inactive)
GI50 (SF-268): 18.5 µM (inactive)
GI50 (KM12): 20.8 µM (inactive)
GI50 (RXF 393): 28.2 µM (inactive)
GI50 (UACC-62): 2.4 µM (inactive)
GI50 (HL-60): 10.6 µM (inactive)
GI50 (EKVX): 4.82 µM (inactive)
GI50 (SW-620): 7.85 µM (inactive)
GI50 (OVCAR-5): 22.3 µM (inactive)
GI50 (UO-31): 37.9 µM (inactive)
GI50 (CAKI-1): 38.4 µM (inactive)
GI50 (NCI-H226): 30.3 µM (inactive)
GI50 (UACC-257): 6.68 µM (inactive)
GI50 (SNB-19): 15.7 µM (inactive)
GI50 (COLO 205): 4.08 µM (inactive)
GI50 (OVCAR-4): 8.83 µM (inactive)
GI50 (SNB-75): 23.3 µM (inactive)
GI50 (DMS-273): 12.1 µM (inactive)
GI50 (HCT-15): 7.33 µM
GI50 (SK-MEL-5): 8.18 µM (inactive)
GI50 (HOP-18): 27.5 µM (inactive)
GI50 (RPMI-8226): 16.8 µM (inactive)
GI50 (XF498): 21.7 µM (inactive)
GI50 (HT-29): 4.03 µM (inactive)
GI50 (NCI-H23): 10.8 µM (inactive)
GI50 (SF-295): 14.3 µM (inactive)
GI50 (SN12C): 17.6 µM (inactive)
GI50 (Malme-3M): 11.3 µM (inactive)
GI50 (TK-10): 32.3 µM (inactive)
GI50 (786-0): 32.7 µM (inactive)
